# Paper PMC10394516, “The pharmacokinetic profile of brensocatib and its effect on pharmacodynamic biomarkers including NE, PR3, and CatG in various rodent species” (Frontiers in Pharmacology, 2023)
# Tests used:
# Assay type in all cases: in vivo
# PR3 [1] = assay: Bone marrow PR3 activity after repeated dosing, BALB/c mice; conditions: for Reduction of PR3 activity vs vehicle / Change From Vehicle Control (%) PR3: 7 days
# Description: (§1) Briefly, animals were weighed and randomized into different treatment groups. In total, three different dosing levels of brensocatib were tested in each species and strain; each QD dosing level was equivalent to 1.5-times the matching daily BID dose. For BID dosing, the second daily dose was administered 8-h post the morning dose. C57BL/6 mice were dosed either BID or QD for 7 consecutive days at 0/0, 0.5/0.75, 2/3, and 20/30 mg/kg/day (BID/QD). BALB/c mice were dosed for 7 consecutive days at 0/0, 0.2/0.3, 2/3, and 20/30 mg/kg/day (BID/QD). SD rats were dosed for 9 consecutive days at 0/0, 0.2/0.3, 2/3, and 20/30 mg/kg/day (BID/QD). Wistar rats were dosed for 7 consecutive days at 0/0, 0.2/0.3, 2/3, and 20/30 mg/kg/day (BID/QD).
# (§2) At the completion of the study, animals were sacrificed 16–24 h post their final dose. The hind limb bones (femurs and tibias) were collected at necropsy for bone marrow analysis of NSP activities by kinetic enzymatic assays ([Basso et al., 2022]). See section Quantification of Bone Marrow NSP Activities for details.
# (§3) For the mice, each animal had the femurs and tibias of both hind limbs harvested. For the rat, the femur and tibia from a single hind limb per animal was harvested. Bones were kept on wet ice until processing for bone marrow collection. In brief, bone cutters were used to cut the epiphysis (knobby ends) off the long bones to expose the bone marrow filled cavity. Each bone cavity was then flushed with 5 mL/bone (mouse) or 10 mL/bone (rat) of ice-cold RPMI media through a […] and collected in a 50-mL conical tube. Cells were spun down at 2,500 × g at 4°C for 5 min and the supernatant was aspirated. After which, bone marrow cells were lysed with 1X red blood cell (RBC) lysis buffer (Abcam, ab204733) to eliminate contaminating RBCs and washed with PBS to remove any residual RBC lysis buffer. The resulting white blood cells (WBC) were subsequently lysed with 1% (v/v) Triton X-100 in PBS. Lysates were added to 96-well plates and stored at −80°C until NSP analyses.
# (§4) Bone marrow lysates prepared as described above were diluted and plated onto 96-well assay plates to quantify NSP activities as described previously ([Basso et al., 2022]). Briefly, peptide substrates for NE (N-Methoxysuccinyl-Ala-Ala-Pro-Val-7-amido-4-methylcoumarin; Sigma; St. Louis, MO; Excitation/Emission at 350/450 nm), PR3 ((7-Methoxycoumarin-4-yl)acetyl-lysyl-(picolinoyl)-Tyr-Asp-Ala-Lys-Gly-Asp-N-3-(2-4-dinitrophenyl)-2-3-diaminopropyonyl-NH2); GenScript; Piscataway, NJ; Excitation/Emission at 340/430 nm), and CatG (N-Succinyl-Ala-Ala-Pro-Phe p nitroanilide; Sigma; Absorbance at 405 nm) were added at a final assay concentration of 100 μM, 40 μM, and 200 μM, respectively, and either fluorescence or absorbance was quantified using a Synergy microplate reader (BioTek; Winooski, VT). The specific NSP activity in each sample was calculated as the total activity minus the activity in the presence of a specific NSP inhibitor (if used), including elastase inhibitor (Abcam) for NE, sivelestat (Abcam) for PR3, and cathepsin G inhibitor I (Cayman Chemical; Ann Arbor, MI) for CatG. NSP concentrations were interpolated based on their activities relative to the standard curves created using active human NE protein (Sigma), active human PR3 protein (Sigma), and active human CatG protein (Sigma), respectively. Due to unavailability of commercial mouse and/or rat NE, PR3, and CatG proteins, the corresponding human proteins were used instead since their catalytic ability is considered to be conserved across species. A portion of each cell lysate sample was retained for protein quantification using a Pierce™ BCA Protein Assay Kit (Thermo Fisher). The NSP activities were normalized for the cell lysate protein concentrations.
# (§5) The Pierce™ BCA Protein Assay Kit was used to measure the total protein of the samples after lysis to allow for subsequent normalization. […]
# PR3 [2] = assay: Bone marrow PR3 activity after repeated dosing, C57BL/6 mice; conditions: for Reduction of PR3 activity vs vehicle / Change From Vehicle Control (%) PR3: 7 days
# Description: as §1, §2, §3, §4, §5
# NE [3] = assay: PD recovery study, bone marrow NE activity, C57BL/6 mice; conditions: for Percent change from vehicle NE: bone marrow
# Description: (§6) A PD recovery study was performed in female C57BL/6 mice dosed BID for 8 consecutive days. Mice were dosed by oral gavage either with vehicle (0 mg/kg) or 5 mg/kg brensocatib (BID; 10 mg/kg/day). After 8 consecutive days of dosing, the animals were maintained without further treatment until prescribed sacrifice (days: 1, 3, 6, 8, and 10 days post final dose). Plasma was collected from animals during the first 24 h of dosing at −0.5 (half-hour prior to dosing), 1, 8, 9, and 24 h post initial dose. Note that the 8- and 24-h plasma samples were prior to the afternoon dose and prior to the second day dose, respectively. Plasma was used for PK analysis via LC-MS/MS. On prescribed days, animals were sacrificed, and the hind limb bones (femurs and tibias) were collected at necropsy for bone marrow analysis of NSP activities by kinetic enzymatic assays.
# as §3, §4
# (§7) The Pierce™ BCA Protein Assay Kit was used to measure the total protein of the samples after lysis to allow for subsequent normalization. The manufacturer’s instructions for use were followed when performing this assay on a portion of the sample lysates which were diluted in PBS, the same diluent as used for preparation of the standard. Plates were read on the Biotek Synergy plate reader with Gen5 software.
# NE [4] = assay: Bone marrow NE activity after repeated dosing, Sprague Dawley rats; conditions: for Reduction of NE activity vs vehicle / Change From Vehicle Control (%) NE: 9 days
# Description: as §1, §2, §3, §4, §5
# PR3 [5] = assay: PD recovery study, bone marrow PR3 activity, C57BL/6 mice; conditions: for Percent change from vehicle PR3: bone marrow
# Description: as §6, §3, §4, §7
# [6] = BID highest dose (20 mg/kg/day)
# [7] = highest dose level 20/30 (BID/QD) mg/kg/day
# [8] = oral BID 2 mg/kg/day, 16 h post final dose
# [9] = oral BID 20 mg/kg/day, 16 h post final dose
# [10] = oral QD 3 mg/kg/day, 24 h post final dose
# [11] = oral QD 30 mg/kg/day, 24 h post final dose
# [12] = after 8 days of 5 mg/kg BID, curve fit with free min and max
# [13] = 1 day recovery after 8 days of 5 mg/kg BID
# [14] = 3 days recovery after 8 days of 5 mg/kg BID
# [15] = 6 days recovery after 8 days of 5 mg/kg BID
# [16] = 8 days recovery after 8 days of 5 mg/kg BID
# [17] = 10 days recovery after 8 days of 5 mg/kg BID
structure (smiles),measurement,setting,value
Cn1c(=O)oc2ccc(-c3ccc(C[C@@H](C#N)NC(=O)[C@@H]4CNCCCO4)cc3)cc21 [brensocatib],Reduction of PR3 activity vs vehicle,PR3 [1]; [6],70%
same,Reduction of PR3 activity vs vehicle,PR3 [1]; QD highest dose (30 mg/kg/day),52%
same,"Combined BID and QD percentage reduction, PR3",PR3 [1]; [7],61%
same,Change From Vehicle Control (%) PR3,"PR3 [1]; oral BID 0.2 mg/kg/day, 16 h post final dose",+13% (p = 0.6435)
same,Change From Vehicle Control (%) PR3,PR3 [1]; [8],−26% (p = 0.1243)
same,Change From Vehicle Control (%) PR3,PR3 [1]; [9],−70% (p < 0.0001)
same,Change From Vehicle Control (%) PR3,"PR3 [1]; oral QD 0.3 mg/kg/day, 24 h post final dose",−7% (p = 0.9149)
same,Change From Vehicle Control (%) PR3,PR3 [1]; [10],−13% (p = 0.6769)
same,Change From Vehicle Control (%) PR3,PR3 [1]; [11],−52% (p = 0.0010)
same,Reduction of PR3 activity vs vehicle,PR3 [2]; [6],80%
same,Reduction of PR3 activity vs vehicle,PR3 [2]; QD highest dose (30 mg/kg/day),65%
same,"Combined BID and QD percent reduction, PR3",PR3 [2]; [7],71%
same,Change From Vehicle Control (%) PR3,"PR3 [2]; oral BID 0.5 mg/kg/day, 16 h post final dose",9% (p = 0.8059)
same,Change From Vehicle Control (%) PR3,PR3 [2]; [8],−44% (p = 0.0041)
same,Change From Vehicle Control (%) PR3,PR3 [2]; [9],−80% (p < 0.0001)
same,Change From Vehicle Control (%) PR3,"PR3 [2]; oral QD 0.75 mg/kg/day, 24 h post final dose",+2% (p = 0.9977)
same,Change From Vehicle Control (%) PR3,PR3 [2]; [10],−46% (p = 0.0008)
same,Change From Vehicle Control (%) PR3,PR3 [2]; [11],−65% (p < 0.0001)
same,"Recovery: Time to reach 50% recovery, NE",NE [3]; [12],0.8 days
same,"Recovery: Time to reach 90% recovery, NE",NE [3]; [12],4.9 days
same,"Recovery: Time to reach 95% recovery, NE",NE [3]; [12],5.6 days
same,"Recovery: Time to reach 100% recovery, NE",NE [3]; [12],6.6 days
same,Percent change from vehicle NE,NE [3]; [13],−49% (p < 0.0001)
same,Percent change from vehicle NE,NE [3]; [14],−4% (p = 0.9544)
same,Percent change from vehicle NE,NE [3]; [15],−20% (p = 0.0067)
same,Percent change from vehicle NE,NE [3]; [16],−2% (p = 0.9986)
same,Percent change from vehicle NE,NE [3]; [17],+15% (p = 0.0607)
same,Reduction of NE activity vs vehicle,NE [4]; [6],38%
same,Reduction of NE activity vs vehicle,NE [4]; QD highest dose (30 mg/kg/day),36%
same,"Combined BID and QD percent reduction, NE",NE [4]; [7],37%
same,Change From Vehicle Control (%) NE,NE [4]; oral BID 0.2 mg/kg/day,+6% (p = 0.6846)
same,Change From Vehicle Control (%) NE,NE [4]; oral BID 2 mg/kg/day,−18% (p = 0.0243)
same,Change From Vehicle Control (%) NE,NE [4]; oral BID 20 mg/kg/day,−38% (p < 0.0001)
same,Change From Vehicle Control (%) NE,NE [4]; oral QD 0.3 mg/kg/day,−2% (p = 0.9973)
same,Change From Vehicle Control (%) NE,NE [4]; oral QD 3 mg/kg/day,−19% (p = 0.2196)
same,Change From Vehicle Control (%) NE,NE [4]; oral QD 30 mg/kg/day,−36% (p = 0.0078)
same,"Recovery: Time to reach 50% recovery, PR3",PR3 [5]; [12],1.4 days
same,"Recovery: Time to reach 90% recovery, PR3",PR3 [5]; [12],5.2 days
same,"Recovery: Time to reach 95% recovery, PR3",PR3 [5]; [12],6.2 days
same,"Recovery: Time to reach 100% recovery, PR3",PR3 [5]; [12],7.5 days
same,Percent change from vehicle PR3,PR3 [5]; [13],−63% (p < 0.0001)
same,Percent change from vehicle PR3,PR3 [5]; [14],−28% (p = 0.0024)
same,Percent change from vehicle PR3,PR3 [5]; [15],−14% (p = 0.3753)
same,Percent change from vehicle PR3,PR3 [5]; [16],+5% (p = 0.9691)
same,Percent change from vehicle PR3,PR3 [5]; [17],+16% (p = 0.1549)
